What was measured:
Type in all cases: functional
[1] = test system: Pseudoperonospora cubensis; test: Fungicidal activity against Pseudoperonospora cubensis assessed as cucumber downy mildew disease control at 500 ppm foliar application 24 hr before inoculation onto the abaxial(treated) surface of leaf by preventive manner
Podosphaera fuliginea [2] = test: Fungicidal activity against Podosphaera fuliginea assessed as cucumber powdery mildew disease control at 7.8 ppm treated on upper surface of leaf 24 hr before inoculation at 23 +/- 2 degC measured after 10 days by preventive manner
[3] = test system: Pseudoperonospora cubensis; test: Fungicidal activity against Pseudoperonospora cubensis assessed as cucumber downy mildew disease control at 125 ppm foliar application 24 hr before inoculation onto the adaxial(treated) surface of leaf by preventive manner
Botrytis cinerea [4] = test: Fungicidal activity against Botryotinia fuckeliana assessed as cucumber gray mold disease control at 500 ppm treated on upper surface of leaf 24 hr before inoculation at 22 +/- 2 degC measured after 3 days by preventive manner
[5] = test system: Pseudoperonospora cubensis; test: Fungicidal activity against Pseudoperonospora cubensis assessed as cucumber downy mildew disease control at 500 ppm foliar application 24 hr before inoculation onto the adaxial(treated) surface of leaf by preventive manner
Podosphaera fuliginea [6] = test: Fungicidal activity against Podosphaera fuliginea assessed as cucumber powdery mildew disease control at 500 ppm treated on upper surface of leaf 24 hr before inoculation at 23 +/- 2 degC measured after 10 days by preventive manner
Botrytis cinerea [7] = test: Fungicidal activity against Botryotinia fuckeliana assessed as cucumber gray mold disease control at 31.3 ppm treated on upper surface of leaf 24 hr before inoculation at 22 +/- 2 degC measured after 3 days by preventive manner
Podosphaera fuliginea [8] = test: Fungicidal activity against Podosphaera fuliginea assessed as cucumber powdery mildew disease control at 31.3 ppm treated on upper surface of leaf 24 hr before inoculation at 23 +/- 2 degC measured after 10 days by preventive manner
Botrytis cinerea [9] = test: Fungicidal activity against Botryotinia fuckeliana assessed as cucumber gray mold disease control at 7.8 ppm treated on upper surface of leaf 24 hr before inoculation at 22 +/- 2 degC measured after 3 days by preventive manner
[10] = test system: Pseudoperonospora cubensis; test: Fungicidal activity against Pseudoperonospora cubensis assessed as cucumber downy mildew disease control at 7.8 ppm foliar application 24 hr before inoculation onto the adaxial(treated) surface of leaf by preventive manner
[11] = test system: Pseudoperonospora cubensis; test: Fungicidal activity against Pseudoperonospora cubensis assessed as cucumber downy mildew disease control at 31.3 ppm foliar application 24 hr before inoculation onto the abaxial(treated) surface of leaf by preventive manner
[12] = test system: Pseudoperonospora cubensis; test: Fungicidal activity against Pseudoperonospora cubensis assessed as cucumber downy mildew disease control at 125 ppm foliar application 24 hr before inoculation onto the abaxial(treated) surface of leaf by preventive manner
[13] = test system: Pseudoperonospora cubensis; test: Fungicidal activity against Pseudoperonospora cubensis assessed as cucumber downy mildew disease control at 7.8 ppm foliar application 24 hr before inoculation onto the abaxial(treated) surface of leaf by preventive manner
[14] = test system: Pseudoperonospora cubensis; test: Fungicidal activity against Pseudoperonospora cubensis assessed as cucumber downy mildew disease control at 31.3 ppm foliar application 24 hr before inoculation onto the adaxial(treated) surface of leaf by preventive manner
[15] = test system: Pseudoperonospora cubensis; test: Fungicidal activity against Pseudoperonospora cubensis assessed as cucumber downy mildew disease control at 2 ppm foliar application 24 hr after inoculation by curative manner
[16] = test system: Pseudoperonospora cubensis; test: Fungicidal activity against Pseudoperonospora cubensis assessed as cucumber downy mildew disease control at 7.8 ppm foliar application 24 hr after inoculation by curative manner
[17] = test system: Pseudoperonospora cubensis; test: Fungicidal activity against Pseudoperonospora cubensis assessed as cucumber downy mildew disease control at 31.3 ppm foliar application 24 hr after inoculation by curative manner
[18] = test system: Pseudoperonospora cubensis; test: Fungicidal activity against Pseudoperonospora cubensis assessed as cucumber downy mildew disease control at 125 ppm foliar application 24 hr after inoculation by curative manner
[19] = test system: Pseudoperonospora cubensis; test: Fungicidal activity against Pseudoperonospora cubensis assessed as cucumber downy mildew disease control at 2 ppm foliar application 24 hr before inoculation onto the adaxial(treated) surface of leaf by preventive manner
[20] = test system: Pseudoperonospora cubensis; test: Fungicidal activity against Pseudoperonospora cubensis assessed as cucumber downy mildew disease control at 2 ppm foliar application 24 hr before inoculation onto the abaxial(treated) surface of leaf by preventive manner

Compound	Activity [1] [%]	Activity (Podosphaera fuliginea [2]) [%]	Activity (Botrytis cinerea [4]) [%]	Activity [5] [%]	Activity (Botrytis cinerea [9]) [%]	Activity [10] [%]	other results
CNC(=O)C(OC)c1ccccc1CO/N=C(/C)c1ccc(C(F)(F)F)cc1 (racemic)	<90	90	50				Activity [3]: 90%
CNC(=O)C(OC)c1ccccc1CO/N=C(/C)c1ccc(OC)cc1 (racemic)	<90		50	90			Activity (Podosphaera fuliginea [6]): 90%
CCCCOc1ccc(/C(C)=N/OCc2ccccc2C(OC)C(=O)NC)cc1 (racemic)	<90			90			Activity (Botrytis cinerea [7]): 50%; Activity (Podosphaera fuliginea [8]): 90%
CNC(=O)C(OC)c1ccccc1CO/N=C(\C)c1ccc(O)cc1 (racemic)	<90		<50	90			Activity (Podosphaera fuliginea [6]): <90%
CNC(=O)C(OC)c1ccccc1CO/N=C(\C)c1ccc(-c2ccccc2)cc1 (racemic)	<90	90		<90	50		
CNC(=O)C(OC)c1ccccc1CO/N=C(\C)c1ccc(Cl)cc1Cl (racemic)	<90						Activity (Botrytis cinerea [7]): 50%; Activity (Podosphaera fuliginea [8]): 90%
CNC(=O)C(OC)c1ccccc1CO/N=C(\C)c1ccc(Cl)c(Cl)c1 (racemic)		90			50	90	Activity [11]: 90%
CNC(=O)C(OC)c1ccccc1CO/N=C(\C)c1ccc(C)cc1C (racemic)	90						Activity (Botrytis cinerea [7]): 50%; Activity (Podosphaera fuliginea [8]): 90%; Activity [3]: 90%
CNC(=O)C(OC)c1ccccc1CO/N=C(\C)c1cc(C)ccc1C (racemic)	<90		<50	90			Activity (Podosphaera fuliginea [6]): 90%
CNC(=O)C(OC)c1ccccc1CO/N=C(\C)c1ccc(C)c(C)c1 (racemic)		90				90	Activity (Botrytis cinerea [7]): 50%; Activity [12]: 90%
CNC(=O)C(OC)c1ccccc1CO/N=C(\C)c1cc(C)cc(C)c1C (racemic)	<90	90	50	90			
CC/C(=N\OCc1ccccc1C(OC)C(=O)NC)c1ccc(Cl)cc1 (racemic)		90			50	90	Activity [13]: 90%
CNC(=O)C(OC)c1ccccc1CO/N=C(/SC)c1ccc(Cl)cc1 (racemic)	97		50	100		100	Activity [12]: 64%; Activity [14]: 100%; Activity [15]: 10%; Activity [16]: 35%; Activity [13]: 40%; Activity [17]: 60%; Activity [11]: 50%; Activity (Podosphaera fuliginea [8]): 90%; Activity [18]: 87%; Activity [3]: 100%; Activity [19]: 100%; Activity [20]: 20%
CNC(=O)C(OC)c1ccccc1CO/N=C(/C)c1ccc(Cl)cc1 (racemic)	<90		50				Activity (Podosphaera fuliginea [8]): 90%; Activity [3]: 90%
CCOc1ccc(/C(C)=N/OCc2ccccc2C(OC)C(=O)NC)cc1 (racemic)	<90	90		90			Activity (Botrytis cinerea [7]): 50%
CNC(=O)C(OC)c1ccccc1CO/N=C(\C)c1ccc(C(C)(C)C)cc1 (racemic)	<90	90		90			Activity (Botrytis cinerea [7]): 50%

Compound	Activity [1] [%]	Activity (Podosphaera fuliginea [2]) [%]	Activity (Botrytis cinerea [4]) [%]	Activity [5] [%]	Activity (Botrytis cinerea [9]) [%]	Activity [10] [%]	other results
CCc1ccc(/C(C)=N/OCc2ccccc2C(OC)C(=O)NC)cc1 (racemic)	90	90			50	90	
CNC(=O)C(OC)c1ccccc1CO/N=C(\C)c1ccc(C)cc1 (racemic)	90	90			50	90	
CNC(=O)C(OC)c1ccccc1CO/N=C(\C)c1ccc(Br)cc1 (racemic)		90			50	90	Activity [11]: 90%
CNC(=O)C(OC)c1ccccc1CO/N=C(\C)c1ccc(F)cc1 (racemic)		90					Activity (Botrytis cinerea [7]): 50%; Activity [14]: 90%; Activity [11]: 90%
CNC(=O)C(OC)c1ccccc1CO/N=C(\C)c1ccc(C(F)(F)F)cc1 (racemic)	100	90		100	50	100	Activity [12]: 96%; Activity [14]: 100%; Activity [15]: 25%; Activity [16]: 40%; Activity [13]: 40%; Activity [17]: 70%; Activity [11]: 91%; Activity [18]: 75%; Activity [3]: 100%; Activity [19]: 100%; Activity [20]: 15%
CNC(=O)C(OC)c1ccccc1CO/N=C(\C)c1cccc(C(F)(F)F)c1 (racemic)	90	90			50	90	
CNC(=O)C(OC)c1ccccc1CO/N=C(\C)c1ccccc1C(F)(F)F (racemic)	<90		<50	<90			Activity (Podosphaera fuliginea [6]): 90%
CNC(=O)C(OC)c1ccccc1CO/N=C(\C)c1ccc(Cl)cc1 (racemic)	97	90		100	50	100	Activity [12]: 85%; Activity [14]: 100%; Activity [15]: 0%; Activity [16]: 5%; Activity [13]: 0%; Activity [17]: 50%; Activity [11]: 70%; Activity [18]: 70%; Activity [3]: 100%; Activity [19]: 0%; Activity [20]: 0%
CNC(=O)C(OC)c1ccccc1CO/N=C(\C)c1cccc(Cl)c1 (racemic)		90			50	90	Activity [11]: 90%
CNC(=O)C(OC)c1ccccc1CO/N=C(\C)c1ccccc1Cl (racemic)	<90		50	90			Activity (Podosphaera fuliginea [6]): 90%
CNC(=O)C(OC)c1ccccc1CO/N=C(\C)c1ccccc1 (racemic)	<90			<90			Activity (Botrytis cinerea [7]): 50%; Activity (Podosphaera fuliginea [8]): 90%
CNC(=O)C(OC)c1ccccc1CO/N=C/c1ccccc1 (racemic)	<90		50	<90			Activity (Podosphaera fuliginea [6]): <90%
CNC(=O)C(OC)c1ccccc1COCc1ccccc1 (racemic)	<90		<50	90			Activity (Podosphaera fuliginea [6]): <90%
CNC(=O)C(OC)c1ccccc1COC(=O)c1ccccc1 (racemic)	<90		<50	90			Activity (Podosphaera fuliginea [6]): <90%
CNC(=O)C(OC)c1ccccc1Oc1ccccc1 (racemic)	<90		<50	<90			Activity (Podosphaera fuliginea [6]): <90%

Source: ChEMBL document CHEMBL3046629, “Fungicidal Activities of 2-Methoxy-2-[2-(benzylideneaminooxymethyl)phenyl]-N-methylacetamide Derivatives” (2002)
